Measurements taken from patent US9113629B2, “4-amino-6-(4-substituted-phenyl)-picolinates and 6-amino-2-(4-substituted-phenyl)-pyrimidine-4-carboxylates and their use as herbicides” (DOW AGROSCIENCES LLC, priority 2013, dated 2015).
Where two headings read alike, the source gives them in different places.

Key:
[1] = tested on: Key Grass and Sedge Weeds as well as Grass Crops; assay: Post-emergent Test II herbicidal activity (Table 6); type: in vivo; conditions: post-emergence, 336 h
Outline: (§1)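 Injury was rated visually 14 d after treatment on a 0–100% scale against untreated controls. Test compounds, formulated with crop oil concentrate and surfactant and serially diluted down to 1/16× of the top rate, were applied by track sprayer at 187 L/ha onto first- to second-true-leaf seedlings.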

[2] = tested on: Key Broadleaf Weed and Crop Species; assay: Post-emergent Test II herbicidal activity (Table 5); type: in vivo; conditions: post-emergence, 336 h, 14 days after application; for pest or weed control at 70 g/ha: application rate 70 g ai/ha; for pest or weed control at 140 g/ha: application rate 140 g ai/ha
Outline: as §1

[3] = Triticum aestivum, TRZSS (wheat), application rate 70 g ai/ha, read-out: Visual Growth Reduction (%) 14 Days After Application, TRZSS
[4] = Triticum aestivum, TRZSS (wheat), application rate 140 g ai/ha, read-out: Visual Growth Reduction (%) 14 Days After Application, TRZSS
[5] = CYPES: yellow nutsedge (Cyperus esculentus), application rate 70 g ai/ha, read-out: Visual Growth Reduction (%) 14 Days After Application, CYPES
[6] = CYPES: yellow nutsedge (Cyperus esculentus), application rate 140 g ai/ha, read-out: Visual Growth Reduction (%) 14 Days After Application, CYPES
[7] = DIGSA: crabgrass (Digitaria sanguinalis), application rate 70 g ai/ha, read-out: Visual Growth Reduction (%) 14 Days After Application, DIGSA
[8] = DIGSA: crabgrass (Digitaria sanguinalis), application rate 140 g ai/ha, read-out: Visual Growth Reduction (%) 14 Days After Application, DIGSA
[9] = ECHCG: barnyardgrass (Echinochloa crus-galli), application rate 70 g ai/ha, read-out: Visual Growth Reduction (%) 14 Days After Application, ECHCG
[10] = ECHCG: barnyardgrass (Echinochloa crus-galli), application rate 140 g ai/ha, read-out: Visual Growth Reduction (%) 14 Days After Application, ECHCG
[11] = ORYSA: rice (Oryza sativa), application rate 70 g ai/ha, read-out: Visual Growth Reduction (%) 14 Days After Application, ORYSA
[12] = ORYSA: rice (Oryza sativa), application rate 140 g ai/ha, read-out: Visual Growth Reduction (%) 14 Days After Application, ORYSA
[13] = SETFA: giant foxtail (Setaria faberi), application rate 70 g ai/ha, read-out: Visual Growth Reduction (%) 14 Days After Application, SETFA
[14] = SETFA: giant foxtail (Setaria faberi), application rate 140 g ai/ha, read-out: Visual Growth Reduction (%) 14 Days After Application, SETFA
[15] = SORVU: grain sorghum (Sorghum vulgare), application rate 70 g ai/ha, read-out: Visual Growth Reduction (%) 14 Days After Application, SORVU
[16] = SORVU: grain sorghum (Sorghum vulgare), application rate 140 g ai/ha, read-out: Visual Growth Reduction (%) 14 Days After Application, SORVU
[17] = ZEAMX: maize, corn (Zea mays), application rate 70 g ai/ha, read-out: Visual Growth Reduction (%) 14 Days After Application, ZEAMX
[18] = ZEAMX: maize, corn (Zea mays), application rate 140 g ai/ha, read-out: Visual Growth Reduction (%) 14 Days After Application, ZEAMX
[19] = ABUTH: velvetleaf (Abutilon theophrasti), read-out: Visual Growth Reduction (%) 14 Days After Application, ABUTH
[20] = AMARE: redroot pigweed (Amaranthus retroflexus), read-out: Visual Growth Reduction (%) 14 Days After Application, AMARE
[21] = BRSNN: oilseed-rape, canola (Brassica napus), read-out: Visual Growth Reduction (%) 14 Days After Application, BRSNN
[22] = CHEAL: lambsquarters (Chenopodium album), read-out: Visual Growth Reduction (%) 14 Days After Application, CHEAL
[23] = EPHHL: wild poinsettia (Euphorbia heterophylla), read-out: Visual Growth Reduction (%) 14 Days After Application, EPHHL
[24] = HELAN: sunflower (Helianthus annuus), read-out: Visual Growth Reduction (%) 14 Days After Application, HELAN
[25] = VIOTR: wild pansy (Viola tricolor), read-out: Visual Growth Reduction (%) 14 Days After Application, VIOTR

Row | Compound | pest or weed control at 70 g/ha [1, 3] [%] | pest or weed control at 140 g/ha [1, 4] [%] | pest or weed control at 70 g/ha [1, 5] [%] | pest or weed control at 140 g/ha [1, 6] [%] | pest or weed control at 70 g/ha [1, 7] [%] | melting point | pest or weed control at 70 g/ha [2, 19] [%] | pest or weed control at 140 g/ha [2, 19] [%] | pest or weed control at 70 g/ha [2, 20] [%] | pest or weed control at 140 g/ha [2, 20] [%] | pest or weed control at 70 g/ha [2, 21] [%] | pest or weed control at 140 g/ha [2, 21] [%] | pest or weed control at 70 g/ha [2, 22] [%] | pest or weed control at 140 g/ha [2, 22] [%] | pest or weed control at 70 g/ha [2, 23] [%] | pest or weed control at 140 g/ha [2, 23] [%] | pest or weed control at 70 g/ha [2, 24] [%] | pest or weed control at 140 g/ha [2, 24] [%] | pest or weed control at 70 g/ha [2, 25] [%] | pest or weed control at 140 g/ha [2, 25] [%] | further results
1 | COc1c(N)nc(-c2ccc(Br)c(F)c2F)nc1C(=O)O [Compound 8] | 60 to 74 | 75 to 84 | 95 to 100 | 95 to 100 | 75 to 84 | 126 to 128 °C (dec.) | 95 to 100 | 95 to 100 | 95 to 100 | 95 to 100 | 95 to 100 | 95 to 100 | 95 to 100 | 95 to 100 | 95 to 100 | 95 to 100 | 95 to 100 | 95 to 100 | 95 to 100 | 95 to 100 | pest or weed control at 140 g/ha [1, 8]: 85 to 94%; pest or weed control at 70 g/ha [1, 9]: 85 to 94%; pest or weed control at 140 g/ha [1, 10]: 85 to 94%; pest or weed control at 70 g/ha [1, 11]: 30 to 44%; pest or weed control at 140 g/ha [1, 12]: 45 to 59%; pest or weed control at 70 g/ha [1, 13]: 75 to 84%; pest or weed control at 140 g/ha [1, 14]: 95 to 100%; pest or weed control at 70 g/ha [1, 15]: 95 to 100%; pest or weed control at 140 g/ha [1, 16]: 95 to 100%; pest or weed control at 70 g/ha [1, 17]: 60 to 74%; pest or weed control at 140 g/ha [1, 18]: 85 to 94%
2 | COC(=O)c1nc(-c2ccc(I)cc2F)c(F)c(N)c1Cl [Compound 9] | – | – | – | – | – | 136 to 138 °C | 0 to 29 | 0 to 29 | 0 to 29 | 0 to 29 | 0 to 29 | 0 to 29 | 0 to 29 | 0 to 29 | 0 to 29 | 0 to 29 | 0 to 29 | 0 to 29 | 0 to 29 | 0 to 29 | pest or weed control at 70 g/ha ([1]; CYPES: yellow nutsedge (Cyperus esculentus), 70 g ai/ha, read-out: Visual Growth Reduction (%) 14 Days After Application, CYPES): 0 to 29%; pest or weed control at 140 g/ha ([1]; CYPES: yellow nutsedge (Cyperus esculentus), 140 g ai/ha, read-out: Visual Growth Reduction (%) 14 Days After Application, CYPES): 0 to 29%; pest or weed control at 70 g/ha ([1]; DIGSA: crabgrass (Digitaria sanguinalis), 70 g ai/ha, read-out: Visual Growth Reduction (%) 14 Days After Application, DIGSA): 0 to 29%; pest or weed control at 140 g/ha ([1]; DIGSA: crabgrass (Digitaria sanguinalis), 140 g ai/ha, read-out: Visual Growth Reduction (%) 14 Days After Application, DIGSA): 0 to 29%; pest or weed control at 70 g/ha ([1]; ECHCG: barnyardgrass (Echinochloa crus-galli), 70 g ai/ha, read-out: Visual Growth Reduction (%) 14 Days After Application, ECHCG): 0 to 29%; pest or weed control at 140 g/ha ([1]; ECHCG: barnyardgrass (Echinochloa crus-galli), 140 g ai/ha, read-out: Visual Growth Reduction (%) 14 Days After Application, ECHCG): 0 to 29%; pest or weed control at 70 g/ha ([1]; ORYSA: rice (Oryza sativa), crop, 70 g ai/ha, read-out: Visual Growth Reduction (%) 14 Days After Application, ORYSA): 0 to 29%; pest or weed control at 140 g/ha ([1]; ORYSA: rice (Oryza sativa), crop, 140 g ai/ha, read-out: Visual Growth Reduction (%) 14 Days After Application, ORYSA): 0 to 29%; pest or weed control at 70 g/ha ([1]; SETFA: giant foxtail (Setaria faberi), 70 g ai/ha, read-out: Visual Growth Reduction (%) 14 Days After Application, SETFA): 0 to 29%; pest or weed control at 140 g/ha ([1]; SETFA: giant foxtail (Setaria faberi), 140 g ai/ha, read-out: Visual Growth Reduction (%) 14 Days After Application, SETFA): 0 to 29%; pest or weed control at 70 g/ha ([1]; SORVU: grain sorghum (Sorghum vulgare), 70 g ai/ha, read-out: Visual Growth Reduction (%) 14 Days After Application, SORVU): 0 to 29%; pest or weed control at 140 g/ha ([1]; SORVU: grain sorghum (Sorghum vulgare), 140 g ai/ha, read-out: Visual Growth Reduction (%) 14 Days After Application, SORVU): 0 to 29%; pest or weed control at 70 g/ha ([1]; TRZSS (wheat, Triticum aestivum), crop, 70 g ai/ha, read-out: Visual Growth Reduction (%) 14 Days After Application, TRZSS): 0 to 29%; pest or weed control at 140 g/ha ([1]; TRZSS (wheat, Triticum aestivum), crop, 140 g ai/ha, read-out: Visual Growth Reduction (%) 14 Days After Application, TRZSS): 0 to 29%; pest or weed control at 70 g/ha ([1]; ZEAMX: maize, corn (Zea mays), crop, 70 g ai/ha, read-out: Visual Growth Reduction (%) 14 Days After Application, ZEAMX): 0 to 29%; pest or weed control at 140 g/ha ([1]; ZEAMX: maize, corn (Zea mays), crop, 140 g ai/ha, read-out: Visual Growth Reduction (%) 14 Days After Application, ZEAMX): 0 to 29%
3 | Nc1c(F)c(-c2ccc(OC(F)F)c(F)c2F)nc(C(=O)O)c1Cl [Compound 19] | 0 to 29 | 0 to 29 | 0 to 29 | 0 to 29 | 0 to 29 | 113 to 115 °C | 0 to 29 | 0 to 29 | 0 to 29 | 0 to 29 | 0 to 29 | 60 to 74 | 0 to 29 | 0 to 29 | 0 to 29 | 30 to 44 | 75 to 84 | 75 to 84 | 0 to 29 | 0 to 29 | pest or weed control at 140 g/ha [1, 8]: 0 to 29%; pest or weed control at 70 g/ha [1, 9]: 0 to 29%; pest or weed control at 140 g/ha [1, 10]: 0 to 29%; pest or weed control at 70 g/ha [1, 11]: 0 to 29%; pest or weed control at 140 g/ha [1, 12]: 0 to 29%; pest or weed control at 70 g/ha [1, 13]: 0 to 29%; pest or weed control at 140 g/ha [1, 14]: 0 to 29%; pest or weed control at 70 g/ha [1, 15]: 0 to 29%; pest or weed control at 140 g/ha [1, 16]: 0 to 29%; pest or weed control at 70 g/ha [1, 17]: 0 to 29%; pest or weed control at 140 g/ha [1, 18]: 0 to 29%
